# Measured values as given in patent publication US7001736B1, “Pharmacogenetic methods for use in the treatment of nervous system diseases” (priority 1995, dated 2006).
# Like-named read-outs stand apart in the source and are kept apart here.
# Experiments:
# patients with AD = tested on: patients with AD
# Excerpt: In this example we characterize patients with AD recruited for a large multi center study of tacrine and to investigate the impact of apoE allele load on short-term outcomes in placebo-treated patients, short-term Tacrine™ treatment effects, and long-term treatment outcome. The patients were classified by sex and dosage.
# The 30-week study was randomized, double-blind, placebo-controlled, parallel-group clinical trial conducted at 33 centers in the USA (see Knapp, M. J. et al. JAMA 271: 985–991 (1995) for complete methodology). Patients randomized to tacrine treatment received an initial dose of 40 mg/day (10 mg QID) and were force-titrated at 6-week intervals in increments of 40 mg to maximum dose levels of 80, 120, and 160 mg/day for Groups II, III, and IV, respectively. Group I received placebo for the entire 30 weeks. The protocol was approved by Institutional Review Boards for each study center and followed guidelines of the Declaration of Helsinki and Good Clinical Practices.
# Patients eligible for the 30-week study were men and women, at least 50 years of age, meeting National Institute of Neurological and Communicative Disorders and Stroke (NINCDS) criteria for a diagnosis of probable AD. […] Disease severity at the time of study entry was defined mild to moderate based on Mini-Mental State Examination. (MMSE) scores between 10 and 26 inclusive. Written informed consent was obtained from care givers and patients or their legal representatives. Medications with known central nervous system effects were prohibited during double-blind treatment. Once patients completed or terminated from the double-blind phase of the study there were no restrictions on concurrent medications. Patients who stopped tacrine treatment could take other investigational drugs.
# The ADAS-Cog is an objective test that evaluates memory, language, and praxis and is a sensitive measure of patient performance (maximum severity score of […]). A decrease in score indicates improvement.
# Four comparisons of tacrine 160 mg/day versus placebo were conducted: (1) without adjusting for ApoE4; (2) adjusting for the presence or absence of ApoE4; (3) for patients with Apo E4; and (4) without Apo E4. The estimated treatment differences, 95% confidence intervals for the treatment differences, and parametric p-values were computed from an analysis of variance (ANOVA) that included effects for randomized treatment group (placebo, 80 mg/day, 120 mg/day, and 160 mg/day) and study site. An analysis of covariance (ANCOVA) for ADAS-Cog also included baseline score a covariant. Least-square means were used to estimate the effect of the E4 allele on Week 30 efficacy scores.
# The change in ADAS-Cog scores at Week 30 were estimated for: (1) placebo patients with an E4 allele, (2) placebo patients without an E4 allele, (3) Tacrine™ 160 mg/day patients with an E4 allele, and (4) Tacrine™ 160 mg/day patients without an E4 allele using ANCOVA that adjusted for site and baseline score. Similarly, Week 30 CIBIC and FCCA scores were estimated using ANOVA adjusted for study site effects.
# AD patients = settings: maximum dose, 40 to 160 mg/d over 30 weeks
# Excerpt: The patients selection done on the basis of presence and absence of drug response to the treatment. The Alzheimer's Disease Assessment Scale (ADAS) used to monitor treatment effects. […] The ADAS-cog is an objective test that evaluates memory, attention, reasoning, orientation and praxis: a decrease score over time (or a positive difference) indicates improvement (Rosen W. G. et al, 1984, Am. J. Psychiatr., 141:1356 1364). The AD total includes the cognitive and non-cognitive portion of the ADAS.
# Each bar represents an individual subjects. Positive delta values (difference in AD score at the end minus AD score prior to drug treatment) indicate improvement in cognitive performance (ADcog) and in global performances (ADAS-total). Negative values represent patients who deteriorated over time and drug treatment. All the subjects are AD subjects, all were treated with the same drug, at the same level, for the same duration.
structure (smiles),measurement,setting,value
"Nc1c2c(nc3ccccc13)CCCC2 [Tacrine, tacrine]",response to tacrine,patients with AD; men having two E4 alleles,do not respond
same,% of subjects with an improvement of the ADAS-COG score by at least 5 points,"patients with AD; men, Tacrine high, E4/X",69%
same,% of subjects with an improvement of the ADAS-COG score by at least 5 points,"patients with AD; men, Tacrine high, EX/X",29%
same,% of subjects with an improvement of the ADAS-COG score by at least 5 points,"patients with AD; men, Tacrine low, E4/4",0%
same,% of subjects with an improvement of the ADAS-COG score by at least 5 points,"patients with AD; men, Tacrine low, E4/X",14%
same,% of subjects with an improvement of the ADAS-COG score by at least 5 points,"patients with AD; men, Tacrine low, EX/X",33%
same,% of subjects with an improvement of the ADAS-COG score by at least 5 points,"patients with AD; men, Tacrine mid, E4/4",0%
same,% of subjects with an improvement of the ADAS-COG score by at least 5 points,"patients with AD; men, Tacrine mid, E4/X",34%
same,% of subjects with an improvement of the ADAS-COG score by at least 5 points,"patients with AD; men, Tacrine mid, EX/X",0%
same,response to tacrine,patients with AD; women having two E4 alleles,do not respond
same,% of subjects with an improvement of the ADAS-COG score by at least 5 points,"patients with AD; women, Tacrine high, E4/X",20%
same,% of subjects with an improvement of the ADAS-COG score by at least 5 points,"patients with AD; women, Tacrine high, EX/X",43%
same,% of subjects with an improvement of the ADAS-COG score by at least 5 points,"patients with AD; women, Tacrine low, E4/4",0%
same,% of subjects with an improvement of the ADAS-COG score by at least 5 points,"patients with AD; women, Tacrine low, E4/X",20%
same,% of subjects with an improvement of the ADAS-COG score by at least 5 points,"patients with AD; women, Tacrine mid, E4/4",0%
same,% of subjects with an improvement of the ADAS-COG score by at least 5 points,"patients with AD; women, Tacrine mid, E4/X",24%
same,% of subjects with an improvement of the ADAS-COG score by at least 5 points,"patients with AD; women, Tacrine mid, EX/X",67%
same,subjects showing improvement with tacrine administration (AD total),AD patients; apoE4 negative AD subjects,more than 85%
same,subjects worse following drug treatment (AD total),AD patients; apoE4 positive AD subjects,60%
